Consider 15 molecules from ChEMBL document CHEMBL1909046, “DrugMatrix in vitro pharmacology data”.

A short description of data set [1]: DRUGMATRIX: Glutamate, NMDA, Phencyclidine radioligand binding (ligand: [3H] TCP). Format: cell membranes, Rattus norvegicus, Wistar, Cerebral cortex, Membrane. Particulars: Not Active = under 50% inhibition at 10 µM.
For another data set, the target named is Cytochrome P450 2E1 (Homo sapiens, UniProt P05181). The note with it: bti-tn-5b1-4. Note: in other assays of this panel Not Active means under 50% inhibition at 10 µM.
Chain of Cytochrome P450 2E1 (P05181 whole entry): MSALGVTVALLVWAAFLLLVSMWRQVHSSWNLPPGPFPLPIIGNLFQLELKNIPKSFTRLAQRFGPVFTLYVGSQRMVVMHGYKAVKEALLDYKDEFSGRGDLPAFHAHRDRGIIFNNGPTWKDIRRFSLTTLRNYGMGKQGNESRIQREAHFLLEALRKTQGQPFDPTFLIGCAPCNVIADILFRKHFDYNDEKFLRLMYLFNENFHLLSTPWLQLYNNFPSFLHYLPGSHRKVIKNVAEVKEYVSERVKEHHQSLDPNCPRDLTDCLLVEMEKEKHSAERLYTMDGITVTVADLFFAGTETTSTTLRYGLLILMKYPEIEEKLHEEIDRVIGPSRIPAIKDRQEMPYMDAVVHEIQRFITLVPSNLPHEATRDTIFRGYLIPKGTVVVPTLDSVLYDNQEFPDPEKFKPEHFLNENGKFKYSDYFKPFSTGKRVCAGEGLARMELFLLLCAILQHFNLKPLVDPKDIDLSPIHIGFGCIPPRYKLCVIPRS
A short description of data set [2]: DRUGMATRIX: Calcium Channel Type L, Benzothiazepine radioligand binding (ligand: [3H] Diltiazem). Format: cell membranes, Rattus norvegicus, Wistar, Brain, Membrane. The note with it: Not Active = under 50% inhibition at 10 µM.
The next data set has as its target Adenosine receptor A2a (Homo sapiens, UniProt P29274). Nature of the data set: DRUGMATRIX: Adenosine A2A radioligand binding (ligand: […]). Format: cell membranes, HEK293, Membrane. The note with it: hek293; Not Active = under 50% inhibition at 10 µM.
Data set [3] in a line: DRUGMATRIX: beta-Lactamase enzyme inhibition (substrate: Nitrocefin). Details: species or system Bacillus cereus. Particulars: Not Active = under 50% inhibition at 10 µM.
For data set [4], the target named is Platelet-activating factor receptor (Homo sapiens, UniProt P25105). In kind it is tissue-based. Note: in other assays of this panel Not Active means under 50% inhibition at 10 µM.
Chain of Platelet-activating factor receptor (P25105 whole entry): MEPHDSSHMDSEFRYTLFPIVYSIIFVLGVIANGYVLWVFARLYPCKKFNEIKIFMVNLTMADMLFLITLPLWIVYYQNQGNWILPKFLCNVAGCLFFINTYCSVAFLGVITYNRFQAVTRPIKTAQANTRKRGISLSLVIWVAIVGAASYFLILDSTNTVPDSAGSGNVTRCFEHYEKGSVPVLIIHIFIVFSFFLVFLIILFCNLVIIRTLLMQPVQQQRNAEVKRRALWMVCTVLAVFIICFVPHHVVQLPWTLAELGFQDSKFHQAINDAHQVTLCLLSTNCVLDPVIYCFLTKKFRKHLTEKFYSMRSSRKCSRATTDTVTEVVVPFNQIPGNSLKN
Data set [5] addresses Sigma non-opioid intracellular receptor 1 (Homo sapiens, UniProt Q99720). The data set is described as follows: DRUGMATRIX: Sigma1 radioligand binding (ligand: [3H] Haloperidol). Format: cell membranes, Jurkat, Membrane. The note with it: Not Active = under 50% inhibition at 10 µM.
A short description of data set [6]: DRUGMATRIX: Glutamate, NMDA, Agonism radioligand binding (ligand: [3H] CGP-39653). Format: cell membranes, Rattus norvegicus, Wistar, Cerebral cortex, Membrane. The note with it: Not Active = under 50% inhibition at 10 µM.

Chain of Adenosine receptor A2a (P29274 whole entry): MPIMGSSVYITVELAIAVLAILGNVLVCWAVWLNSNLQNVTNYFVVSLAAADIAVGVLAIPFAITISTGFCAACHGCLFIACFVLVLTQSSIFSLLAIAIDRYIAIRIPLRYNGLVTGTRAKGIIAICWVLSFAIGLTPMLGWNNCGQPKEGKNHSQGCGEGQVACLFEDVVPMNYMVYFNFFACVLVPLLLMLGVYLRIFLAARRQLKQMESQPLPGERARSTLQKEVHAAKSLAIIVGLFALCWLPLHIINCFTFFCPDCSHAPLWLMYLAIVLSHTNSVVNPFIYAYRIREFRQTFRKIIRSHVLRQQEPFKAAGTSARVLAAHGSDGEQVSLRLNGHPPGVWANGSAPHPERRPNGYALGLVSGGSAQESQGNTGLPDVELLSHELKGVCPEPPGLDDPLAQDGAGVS
Chain of Sigma non-opioid intracellular receptor 1 (Q99720 whole entry): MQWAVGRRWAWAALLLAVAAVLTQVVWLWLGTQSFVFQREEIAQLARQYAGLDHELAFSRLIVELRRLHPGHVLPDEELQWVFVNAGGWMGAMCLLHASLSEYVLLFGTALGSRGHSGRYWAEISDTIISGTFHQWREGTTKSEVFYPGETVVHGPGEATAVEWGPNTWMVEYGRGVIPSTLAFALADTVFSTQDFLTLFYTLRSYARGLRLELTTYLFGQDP

In general, IC50 refers to the midpoint of a concentration-inhibition curve. Usually Ki stands for the equilibrium dissociation constant of an inhibitor or competing ligand from its target. Take `Oc1ccc(/C=C/c2cc(O)cc(O)c2)cc1` [RESVERATROL]: the IC50 entry (in data set [1]; at Cytochrome P450 2E1; in data set [2]; at Adenosine receptor A2a; in data set [3]; in data set [4]) was “Not Active” throughout. Also, the IC50 entry in data set [5] (jurkat) and in data set [6] was “Not Active” in each case. Besides, the Ki result (in data set [1]; at Cytochrome P450 2E1; in data set [2]; in data set [3]; in data set [6]) was “Not Active” in each case.

For the molecule `Cc1cnc(NC(=O)C2=C(O)c3ccccc3S(=O)(=O)N2C)s1` [MELOXICAM], the IC50 result (in data set [1]; against Cytochrome P450 2E1; in data set [2]; on Adenosine receptor A2a; in data set [3]; in data set [4]) was “Not Active” each time. The IC50 entry in data set [5] (jurkat) and in data set [6] was “Not Active” in each case. The Ki result (in data set [1]; at Cytochrome P450 2E1; in data set [2]; in data set [3]; in data set [6]) was “Not Active” throughout.

With `CC[C@H](C)[C@@H](CO[C@@H](Cc1ccccc1)C(=O)N[C@@H](CCS(C)(=O)=O)C(=O)OC(C)C)NC[C@@H](N)CS`, the IC50 result was “Not Active” in data set [1]; “Not Active” against Cytochrome P450 2E1; 3.57 µM in data set [2] (read-out: IC50); “Not Active” on Adenosine receptor A2a; “Not Active” in data set [3]; “Not Active” in data set [4]. Moreover, the IC50 result in data set [5] (jurkat) and in data set [6] was “Not Active” each time. Moreover, the Ki result is “Not Active” in data set [1]; “Not Active” at Cytochrome P450 2E1; 3.17 µM in data set [2] (read-out: Ki); “Not Active” in data set [3]; “Not Active” in data set [6].

As for `O=C1CC[C@@]2(O)[C@H]3Cc4ccc(O)c5c4[C@@]2(CCN3CC2CC2)[C@H]1O5` [NALTREXONE], the IC50 entry (in data set [1]; at Cytochrome P450 2E1; in data set [2]; on Adenosine receptor A2a; in data set [3]; in data set [4]) was “Not Active” in each case. Moreover, the IC50 entry in data set [5] (jurkat) and in data set [6] was “Not Active” throughout. Also, the Ki result (in data set [1]; at Cytochrome P450 2E1; in data set [2]; in data set [3]; in data set [6]) was “Not Active” each time.

On to `C=CCc1ccc2c(c1)OCO2` [SAFROLE], for which the IC50 result (in data set [1]; at Cytochrome P450 2E1; in data set [2]; on Adenosine receptor A2a; in data set [3]; in data set [4]) was “Not Active” in each case. For the same molecule, the IC50 entry in data set [5] (jurkat) and in data set [6] was “Not Active” each time. The Ki result (in data set [1]; at Cytochrome P450 2E1; in data set [2]; in data set [3]; in data set [6]) was “Not Active” each time.

As to `O=[As][O-].[Na+]` [SODIUM ARSENITE], the IC50 result (in data set [1]; at Cytochrome P450 2E1; in data set [2]; on Adenosine receptor A2a; in data set [3]; in data set [4]) was “Not Active” in each case. The IC50 entry in data set [5] (jurkat) and in data set [6] was “Not Active” each time. In addition, the Ki entry (in data set [1]; on Cytochrome P450 2E1; in data set [2]; in data set [3]; in data set [6]) was “Not Active” each time.

Take `Cc1cn([C@H]2C=C[C@@H](CO)O2)c(=O)[nH]c1=O` [STAVUDINE]: the IC50 result (in data set [1]; against Cytochrome P450 2E1; in data set [2]; at Adenosine receptor A2a; in data set [3]; in data set [4]) was “Not Active” in each case. For the same molecule, the IC50 entry in data set [5] (jurkat) and in data set [6] was “Not Active” in each case. Moreover, the Ki result (in data set [1]; on Cytochrome P450 2E1; in data set [2]; in data set [3]; in data set [6]) was “Not Active” in each case.

On to `COC(=O)Nc1nc2ccc(C(=O)c3ccccc3)cc2[nH]1` [MEBENDAZOLE], for which the IC50 entry (in data set [1]; against Cytochrome P450 2E1; in data set [2]; on Adenosine receptor A2a; in data set [3]; in data set [4]) was “Not Active” each time. Further, the IC50 entry in data set [5] (jurkat) and in data set [6] was “Not Active” in each case. The Ki entry (in data set [1]; at Cytochrome P450 2E1; in data set [2]; in data set [3]; in data set [6]) was “Not Active” in each case.

`CC[C@H](C)C(=O)O[C@H]1CCC=C2C=C[C@H](C)[C@H](CC[C@@H]3C[C@@H](O)CC(=O)O3)[C@H]21` [MEVASTATIN]: the IC50 entry (in data set [1]; against Cytochrome P450 2E1; in data set [2]; at Adenosine receptor A2a; in data set [3]; in data set [4]) was “Not Active” each time. The IC50 result in data set [5] (jurkat) and in data set [6] was “Not Active” throughout. Also, the Ki entry (in data set [1]; at Cytochrome P450 2E1; in data set [2]; in data set [3]; in data set [6]) was “Not Active” throughout.

With `O=C(OC[C@H]1O[C@@H](OC(=O)c2cc(O)c(O)c(OC(=O)c3cc(O)c(O)c(O)c3)c2)[C@H](OC(=O)c2cc(O)c(O)c(OC(=O)c3cc(O)c(O)c(O)c3)c2)[C@@H](OC(=O)c2cc(O)c(O)c(OC(=O)c3cc(O)c(O)c(O)c3)c2)[C@@H]1OC(=O)c1cc(O)c(O)c(OC(=O)c2cc(O)c(O)c(O)c2)c1)c1cc(O)c(O)c(OC(=O)c2cc(O)c(O)c(O)c2)c1` [TANNIC ACID], the IC50 entry (in data set [1]; at Cytochrome P450 2E1; in data set [2]; on Adenosine receptor A2a; in data set [3]; in data set [4]) was “Not Active” in each case. Besides, the half-inhibitory concentration (IC50) result in data set [5] (jurkat) and in data set [6] was “Not Active” in each case. The Ki result (in data set [1]; at Cytochrome P450 2E1; in data set [2]; in data set [3]; in data set [6]) was “Not Active” throughout.

Regarding LEAD(IV) ACETATE, the IC50 result (in data set [1]; on Cytochrome P450 2E1; in data set [2]; on Adenosine receptor A2a; in data set [3]; in data set [4]) was “Not Active” in each case. Also, the IC50 result in data set [5] (jurkat) and in data set [6] was “Not Active” throughout. Besides, the Ki result (in data set [1]; on Cytochrome P450 2E1; in data set [2]; on Adenosine receptor A2a; in data set [3]; in data set [4]) was “Not Active” throughout. Further, the Ki result in data set [5] (jurkat) and in data set [6] was “Not Active” in each case.

For `CC#C[C@]1(O)CC[C@H]2[C@@H]3CCC4=CC(=O)CCC4=C3[C@@H](c3ccc(N(C)C)cc3)C[C@@]21C` [MIFEPRISTONE], the IC50 result is “Not Active” in data set [1]; “Not Active” on Cytochrome P450 2E1; 29 µM in data set [2] (read-out: IC50); “Not Active” on Adenosine receptor A2a; “Not Active” in data set [3]; “Not Active” in data set [4]. In addition, the IC50 was 26.3 µM in data set [5] (read-out: IC50) and “Not Active” in data set [6]. For the same molecule, the Ki result in data set [1] was “Not Active”; on Cytochrome P450 2E1, “Not Active”; in data set [2] (read-out: Ki) it was 25.8 µM; in data set [3], “Not Active”; in data set [5] (read-out: Ki), 11 µM; in data set [6], “Not Active”.

Regarding `Cc1[nH]c(=O)c(C#N)cc1-c1ccncc1` [MILRINONE], the IC50 result (in data set [1]; against Cytochrome P450 2E1; in data set [2]; on Adenosine receptor A2a; in data set [3]; in data set [4]) was “Not Active” each time. In addition, the IC50 result in data set [5] (jurkat) and in data set [6] was “Not Active” each time. Also, the Ki entry (in data set [1]; at Cytochrome P450 2E1; in data set [2]; in data set [3]; in data set [6]) was “Not Active” in each case.

For the molecule `CCN(CC)N=O` [N-NITROSODIETHYLAMINE], the IC50 entry (in data set [1]; on Cytochrome P450 2E1; in data set [2]; on Adenosine receptor A2a; in data set [3]; in data set [4]) was “Not Active” each time. Moreover, the IC50 result in data set [5] (jurkat) and in data set [6] was “Not Active” in each case. In addition, the Ki result (in data set [1]; on Cytochrome P450 2E1; in data set [2]; in data set [3]; in data set [6]) was “Not Active” throughout.

With `CC(O)C(=O)O` (centres undefined) [LACTIC ACID], the IC50 result (in data set [1]; at Cytochrome P450 2E1; in data set [2]; on Adenosine receptor A2a; in data set [3]; in data set [4]) was “Not Active” in each case. The IC50 entry in data set [5] (jurkat) and in data set [6] was “Not Active” each time. The Ki entry (in data set [1]; at Cytochrome P450 2E1; in data set [2]; in data set [3]; in data set [6]) was “Not Active” throughout.
